SMILES strings stand for the structures. In brackets after ≈: the same amount, converted by molar mass.

In series [1] the target is T1, Voltage-gated inwardly rectifying potassium channel KCNH2 (Homo sapiens, UniProt Q12809).
Series [2] is described as follows: physchem. Particulars: octanol/water, pH 7.4.
Series [3] is described as follows: physchem. Particulars: buffer, pH 6.8.
Series [4] in a line: in vitro. Particulars: dog, MDCK.
A short description of series [5]: in vitro. Particulars: mouse, liver microsomes. On the technique in general: Liver microsomes are a subcellular fraction often used to study metabolism.
The nature of series [6]: in vitro. The settings on record: rat, liver microsomes.
A short description of series [7]: in vitro. The settings on record: human, liver microsomes.
Series [8] deals with T2, Leukotriene A-4 hydrolase (Homo sapiens, UniProt P09960).
T2 sequence (P09960 whole entry): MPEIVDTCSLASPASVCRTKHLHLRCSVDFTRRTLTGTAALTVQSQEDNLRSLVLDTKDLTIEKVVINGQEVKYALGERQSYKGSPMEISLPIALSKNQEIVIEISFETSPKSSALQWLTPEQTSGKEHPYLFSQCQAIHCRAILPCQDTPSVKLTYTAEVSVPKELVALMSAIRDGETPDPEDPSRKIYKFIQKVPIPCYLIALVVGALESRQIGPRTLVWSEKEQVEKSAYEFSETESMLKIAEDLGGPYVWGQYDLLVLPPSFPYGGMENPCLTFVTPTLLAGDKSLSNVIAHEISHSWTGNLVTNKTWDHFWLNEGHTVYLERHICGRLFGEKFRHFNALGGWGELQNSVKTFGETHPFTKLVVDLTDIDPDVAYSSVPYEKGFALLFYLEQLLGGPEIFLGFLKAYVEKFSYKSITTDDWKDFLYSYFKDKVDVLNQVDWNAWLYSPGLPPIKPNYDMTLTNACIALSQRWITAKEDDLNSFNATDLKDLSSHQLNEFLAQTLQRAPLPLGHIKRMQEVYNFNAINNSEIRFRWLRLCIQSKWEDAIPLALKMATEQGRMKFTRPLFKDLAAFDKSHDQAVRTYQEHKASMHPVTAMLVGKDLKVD
Briefly: Inhibition of LTA4H (unknown origin).

Series [9] has as its target T2, Leukotriene A-4 hydrolase. Briefly: Inhibition of LTA4H in human blood assessed as LTB4 production. It is filed as tissue-based.
Series [10] deals with T1, Voltage-gated inwardly rectifying potassium channel KCNH2. The source holds these as a separate data set.
The target is the same in series [11]. The source holds these as a separate data set.
The nature of series [12]: in vivo. Particulars: Sprague-Dawley, rat, iv, 1 mg/kg.
Series [13] is described as follows: in vivo. The settings on record: Sprague-Dawley, rat, iv, 1 mg/kg. The source holds these as a separate data set.
Series [14] in a line: in vivo. Particulars: Sprague-Dawley, rat, iv, 1 mg/kg. This is another data set of the same source.
A short description of series [15]: in vivo. The settings on record: Sprague-Dawley, rat, po, 3 mg/kg.
A short description of series [16]: in vivo. Particulars: Sprague-Dawley, rat, iv, 1 mg/kg. This is another data set of the same source.
A short description of series [17]: in vivo. The settings on record: Sprague-Dawley, rat, iv, 1 mg/kg. The source holds these as a separate data set.
Series [18] in a line: in vivo. The settings on record: Sprague-Dawley, rat, iv, 1 mg/kg. This is another data set of the same source.
Series [19] is described as follows: in vivo. The settings on record: C57BL/6, mouse, po, 10 mg/kg.
A short description of series [20]: in vivo. The settings on record: C57BL/6, mouse, po, 10 mg/kg. This is another data set of the same source.
Series [21] is described as follows: physchem.
The nature of series [22]: Inhibition of calcium ionophore A23187-stimulated LTB4 release in C57BL/6 mouse model at 10 mg/kg, po bid measured after 2 hrs. It is filed as functional.

T1 sequence (Q12809 whole entry): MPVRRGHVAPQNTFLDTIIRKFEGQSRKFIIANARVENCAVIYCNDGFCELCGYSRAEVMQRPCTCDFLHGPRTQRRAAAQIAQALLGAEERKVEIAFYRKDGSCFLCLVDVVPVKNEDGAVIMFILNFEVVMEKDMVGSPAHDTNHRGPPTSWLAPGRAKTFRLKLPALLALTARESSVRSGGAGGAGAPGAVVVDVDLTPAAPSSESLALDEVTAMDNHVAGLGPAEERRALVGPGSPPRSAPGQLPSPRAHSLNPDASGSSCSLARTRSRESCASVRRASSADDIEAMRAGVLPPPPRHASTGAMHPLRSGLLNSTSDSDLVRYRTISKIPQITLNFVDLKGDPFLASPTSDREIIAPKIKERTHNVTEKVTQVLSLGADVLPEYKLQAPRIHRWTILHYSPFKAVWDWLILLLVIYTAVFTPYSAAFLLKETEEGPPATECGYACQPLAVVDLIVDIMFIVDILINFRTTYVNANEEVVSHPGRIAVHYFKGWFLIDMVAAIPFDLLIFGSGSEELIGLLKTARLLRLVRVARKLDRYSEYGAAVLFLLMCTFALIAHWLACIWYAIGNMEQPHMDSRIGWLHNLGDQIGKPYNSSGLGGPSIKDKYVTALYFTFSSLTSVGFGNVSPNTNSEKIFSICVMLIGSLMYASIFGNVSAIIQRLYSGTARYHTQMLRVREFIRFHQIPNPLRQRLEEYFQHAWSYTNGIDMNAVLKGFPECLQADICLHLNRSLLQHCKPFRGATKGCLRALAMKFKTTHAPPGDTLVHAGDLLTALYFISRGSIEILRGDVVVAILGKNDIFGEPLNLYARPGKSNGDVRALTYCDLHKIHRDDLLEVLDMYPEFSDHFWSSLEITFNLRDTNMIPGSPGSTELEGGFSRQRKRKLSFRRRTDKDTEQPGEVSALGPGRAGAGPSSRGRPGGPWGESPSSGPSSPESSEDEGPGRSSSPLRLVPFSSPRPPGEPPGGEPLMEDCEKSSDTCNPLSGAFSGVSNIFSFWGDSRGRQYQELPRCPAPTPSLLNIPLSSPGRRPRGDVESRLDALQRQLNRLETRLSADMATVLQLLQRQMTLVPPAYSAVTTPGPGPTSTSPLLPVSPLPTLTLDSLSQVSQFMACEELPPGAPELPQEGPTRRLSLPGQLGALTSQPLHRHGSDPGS

Broadly, the IC50 is the midpoint of a concentration-inhibition curve. The logD is lipophilicity at a set pH, counting ionised and neutral species. The low end stands for a more hydrophilic compound, the high end for a more lipophilic compound. As a reminder, the solubility is the dissolved amount per volume that the medium holds. A high value points to a readily soluble substance. In general, Papp A→B refers to the apparent permeability from the apical to the basolateral side of a cell layer. For orientation: microsomal CLint means a measure of how fast metabolising enzymes remove a compound, apart from limits set by blood flow. On to `Cc1ccc(Oc2ccc(-c3nnn(CCN)n3)cc2)cc1`, for which, in series [1], it took 6 µM to reach half-maximal inhibition (IC50). Also, the logD in “physchem [2]” turned out to be 3. Also, the solubility in “physchem [3]” came out at 30 µM (≈ 8.86 µg/mL). Besides, in the series “in vitro [4]”, the Papp A→B is 34 ×10⁻⁶ cm/s. Moreover, the microsomal CLint in the series “in vitro [5]” was 246 µL/min/mg; in “in vitro [6]”, 266 µL/min/mg; in “in vitro [7]”, 396 µL/min/mg.

`N[C@@H](CCO)Cn1nnc(-c2ccc(Oc3ncc(Cl)cc3F)cc2)n1` showed a Papp A→B in “in vitro [4]” of 23 ×10⁻⁶ cm/s.

For the compound `O=C(O)c1ccc(CN2C[C@@H]3C[C@H]2CN3Cc2ccc(Oc3ccc(-c4ncco4)cc3)cc2)cc1` [ACEBILUSTAT], the figures for the half-maximal inhibitory concentration (IC50) in series [8] and in [9] were 0.003 µM and 0.135 µM, respectively.

For orientation: clearance means a measure of how efficiently the substance is removed, as volume per time. A lower clearance goes with a low capacity for elimination. In general, Vd refers to a proportionality between amount in the body and measured concentration, not a real space. A lower Vd goes with little distribution into tissue. A word on the MRT: it is the average time that molecules of a dose stay in the body. The term AUC(0-inf) denotes the area under the concentration-time curve extrapolated to infinity. The term bioavailability denotes the share of a dose that reaches the circulation, judged against a reference dose that is usually intravenous. By Cmax is commonly meant the maximum level reached in the sampled fluid or tissue. Usually pKa stands for the pH at which an ionisable group is half protonated. In the case of `N[C@H](CO)Cn1nnc(-c2ccc(Oc3ncc(Cl)cc3F)cc2)n1`, the IC50 was above 30 µM in series [1], 30 µM in series [10] and 28 µM in series [11]. In “in vivo [12]”, this compound gave a clearance of 9 mL/min/kg. The Vd in “in vivo [13]” amounted to 3 L/kg. The MRT in “in vivo [14]” is 5.3 h. The area under the curve AUC(0-inf) in the series “in vivo [15]” came out at 14.7 µM·h. The compound also gave a bioavailability in the series “in vivo [16]” of 100%. This compound yielded a Cmax in the series “in vivo [17]” of 1300 nM. For the same compound, the figures for the concentration at 24 h in “in vivo [18]” and in “in vivo [20]” (blood) were 52 nM and 134 nM, respectively. Further, the concentration at 2 h in “in vivo [19]” (blood) is 2980 nM. Moreover, the logD in the series “physchem [2]” came out at 2.3. In the series “physchem [3]”, this compound registered a solubility above 1000 µM. For the same compound, the Papp A→B in the series “in vitro [4]” was determined as 28 ×10⁻⁶ cm/s. Further, the microsomal CLint in the series “in vitro [5]”, in “in vitro [6]” and in the series “in vitro [7]” was below 25 µL/min/mg each time. The compound further showed a pKa in “physchem [21]” of 7.1.

Turning to `CC(=O)N[C@H]1C[C@H]2CC[C@@H](C1)N2Cc1ccc(Oc2nc3ncccc3s2)cc1`, the 50% inhibitory concentration (IC50) amounted to 0.003 µM in series [8] and 0.042 µM in series [9].

As usually defined, the inhibition in vivo is the percentage by which the read-out fell short of the control. For the compound `N[C@@H](CC(=O)O)Cn1nnc(-c2ccc(Oc3ncc(Cl)cc3F)cc2)n1`, in [22], the inhibition in vivo at 10 mg/kg was found to be 97%. In the series “in vivo [19]” (in vivo), this compound gave a concentration at 2 h of 1290 nM. This compound also returned a concentration at 24 h in the series “in vivo [20]” (in vivo) of 184 nM. In addition, the logD in “physchem [2]” came out at 0.5. Besides, the solubility in “physchem [3]” was found to be 620 µM (≈ 244 µg/mL). The compound further yielded an apical-to-basolateral permeability (Papp A→B) in “in vitro [4]” of 1.8 ×10⁻⁶ cm/s. Moreover, the microsomal CLint in “in vitro [5]”, in the series “in vitro [6]” and in “in vitro [7]” was below 25 µL/min/mg each time.

Take `N[C@H](CO)Cc1nc(-c2ccc(Oc3ccc(-c4cc[nH]n4)cn3)cc2)no1`: the 50% inhibitory concentration (IC50) in series [1] was above 30 µM; in [10], above 30 µM; in [11], above 100 µM. In the series “in vivo [12]”, this compound had a clearance of 16 mL/min/kg. The distribution volume (Vd) in “in vivo [13]” came to 21 L/kg. Further, the MRT in “in vivo [14]” was 23 h. Further, the AUC(0-inf) in the series “in vivo [15]” worked out at 4.2 µM·h. Also, in the series “in vivo [16]”, the bioavailability was determined as 49%. In addition, the peak level in “in vivo [17]” (Cmax) was 403 nM. The concentration at 24 h came out at 23 nM in “in vivo [18]” and 116 nM in the series “in vivo [20]” (blood). Moreover, the concentration at 2 h in “in vivo [19]” (blood) was found to be 800 nM. The logD in “physchem [2]” was determined as 1.8. The solubility in “physchem [3]” worked out at 870 µM (≈ 329 µg/mL). The apparent permeability from apical to basolateral (Papp A→B) in the series “in vitro [4]” was determined as 9 ×10⁻⁶ cm/s. The intrinsic clearance (microsomal CLint) in “in vitro [5]” was 29 µL/min/mg; in the series “in vitro [6]”, below 25 µL/min/mg; in the series “in vitro [7]”, below 25 µL/min/mg.

In series [1], `N[C@H](CCO)Cn1nnc(-c2ccc(Oc3ncc(Cl)cc3F)cc2)n1` showed an IC50 above 30 µM. This compound also showed a logD in the series “physchem [2]” of 2.4. Also, the concentration in solution in the series “physchem [3]” (solubility) came to 580 µM (≈ 220 µg/mL). In addition, the apparent permeability from apical to basolateral (Papp A→B) in the series “in vitro [4]” is 21 ×10⁻⁶ cm/s. In addition, the microsomal CLint came out at 145 µL/min/mg in “in vitro [5]”, 94 µL/min/mg in “in vitro [6]” and 40 µL/min/mg in “in vitro [7]”.

`N[C@@H](CO)Cn1nnc(-c2ccc(Oc3ncc(Cl)cc3F)cc2)n1`: the IC50 in series [1] and in series [10] was above 30 µM throughout. In addition, in the series “in vivo [12]”, the clearance is 134 mL/min/kg. The same compound came in with a distribution volume (Vd) in the series “in vivo [13]” of 36 L/kg. In “in vivo [14]”, this compound came in with a mean residence time MRT of 4.5 h. For the same compound, in the series “in vivo [15]”, the AUC(0-inf) stood at 0.369 µM·h. Moreover, the bioavailability in “in vivo [16]” stood at 37%. For the same compound, the Cmax in the series “in vivo [17]” was found to be 42 nM. In “in vivo [18]”, this compound registered a concentration at 24 h of 2 nM. Moreover, the logD in “physchem [2]” is 2.3. In the series “physchem [3]”, this compound returned a solubility of 520 µM (≈ 190 µg/mL). In the series “in vitro [4]”, this compound returned a Papp A→B of 25 ×10⁻⁶ cm/s. Moreover, the microsomal CLint in “in vitro [5]”, in the series “in vitro [6]” and in “in vitro [7]” was below 25 µL/min/mg each time. In the series “physchem [21]”, this compound had a pKa of 7.1.

Values taken from ChEMBL document CHEMBL5375967 (J Med Chem, 2023).
